Here are results for 17 compounds from patent US6380196B1, “Dihydrobenzofurans” (Byk Gulden Lomberg Chemische Fabrik GmbH, priority 1997, dated 2002).

Structures can show the parent of a compound that is named as a salt.

Tested on in one data set: not given
Experiment: not given
Consider `COc1ccc(C2=NNC(=O)[C@H]3CC=CC[C@@H]23)c2c1OC(C)(C)C2` (relative stereo), for which the melting point (as a rule, the temperature, or range, at which the solid turns liquid) was found to be 242 °C.

The test system of a further data set is PDE4. The experiment in a line: Inhibition of PDE 4 activity (method of Bauer and Schwabe, adapted to microtitre plates). It counts as biochemical. The procedure:
The activity test was carried out according to the method of Bauer and Schwabe, which was adapted to microtitre plates (Naunyn-Schmiederberg's Arch. Pharmacol. 311, 193-198, 1980). In this test, the PDE reaction is carried out in the first step. In a second step, the resultant 5′-nucleotide is cleaved to the uncharged nucleoside by a snake venom 5′-nucleotidase from Crotalus Atrox. In the third step, the nucleoside is separated from the remaining charged substrate on ion exchange columns. The columns are eluted directly into minivials using 2 ml of 30 mM ammonium formate (pH 6.0), to which a further 2 ml of scintillation fluid is added for counting.
The inhibitory values determined for the compounds according to the invention follow from the following table A, in which the numbers of the compounds correspond to the numbers of the examples.
Regarding `COc1ccc(C2=NN(Cc3ccc(C(=O)O)cc3)C(=O)C3CCCCC23)c2c1OC1(CCCC1)C2` (stereo not drawn) [Compound 11, (cis)-4-(2,3-Dihydro-7-methoxybenzofuran-2-spiro-1′-cyclopentan-4-yl)-2-(4-carboxybenzyl)-4a,5,6,7,8,8a-hexahydro-2H-phthalazin-1-one], the “Inhibition of PDE4 activity [measured as -loglC50 (mol/l)]” value worked out at 7.66.

In the case of `COc1ccc(C2=NN(Cc3ccccc3)C(=O)C3CCCCC23)c2c1OC1(CCCC1)C2` (stereo not drawn) [Compound 14, (cis)-4-(2,3-Dihydro-7-methoxybenzofuran-2-spiro-1′-cyclopentan-4-yl)-2-benzyl-4a,5,6,7,8,8a-hexahydro-2H-phthalazin-1-one], the “Inhibition of PDE4 activity [measured as -loglC50 (mol/l)]” value amounted to 8.62. With `COc1ccc(C2=NN(C3CCCCCC3)C(=O)C3CCCCC23)c2c1OC1(CCCC1)C2` (stereo not drawn) [Compound 13, (cis)-4-(2,3-Dihydro-7-methoxybenzofuran-2-spiro-1′-cyclopentan-4-yl)-2-cycloheptyl-4a,5,6,7,8,8a-hexahydro-2H-phthalazin-1-one], the “Inhibition of PDE4 activity [measured as -loglC50 (mol/l)]” value is 9.22. The same measure, in the same setting: to `COc1ccc(C2=NN(C3CCCC3)C(=O)C3CC=CCC23)c2c1OC1(CCCC1)C2` (stereo not drawn) [Compound 5, (cis)-4-(2,3-Dihydro-7-methoxybenzofuran-2-spiro-1′-cyclopentane-4-yl)-2-cyclopentyl-4a,5,8,8a-tetrahydro-2H-phthalazin-1-one] belongs 9.22; to `COc1ccc(C2=NNC(=O)C3CC=CCC23)c2c1OC1(CCCC1)C2` (stereo not drawn) [Compound 1, (cis)-4-(2,3-Dihydro-7-methoxybenzofuran-2-spiro-1′-cyclopentan-4-yl)-4a,5,8,8a-tetrahydro-2H-phthalazin-1-one], 8.02; to `COc1ccc(C2=NN(c3ccc(C(=O)O)cc3)C(=O)C3CC=CCC23)c2c1OC1(CCCC1)C2` (stereo not drawn) [Compound 24, (cis)-4-(2,3-Dihydro-7-methoxybenzofuran-2-spiro-1′-cyclopentan-4-yl)-2-(p-carboxyphenyl)-4a,5,8,8a-tetrahydro-2H-phthalazin-1-one], 9.38. Turning to `COc1ccc(C2=NN(c3ccccc3)C(=O)[C@H]3CC=CC[C@@H]23)c2c1OC(C)(C)C2` (relative stereo) [Compound 27, (cis)-4-(2,3-Dihydro-2,2-dimethyl-7-methoxybenzofuran-4-yl)-2-phenyl-4a,5,8,8a-tetrahydro-2H-phthalazin-1-one], the “Inhibition of PDE4 activity [measured as -loglC50 (mol/l)]” value is reported as 8.74. In the case of `COc1ccc(C2=NN(Cc3ccncc3)C(=O)C3CCCCC23)c2c1OC1(CCCC1)C2` (stereo not drawn) [Compound 12, (cis)-4-(2,3-Dihydro-7-methoxybenzofuran-2-spiro-1′-cyclopentan-4-yl)-2-(4-pyridylmethyl)-4a,5,6,7,8,8a-hexahydro-2H-phthalazin-1-one-hydrochloride], the “Inhibition of PDE4 activity [measured as -loglC50 (mol/l)]” value is 8.22. On the same count and under the same terms, the result for `COc1ccc(C2=NN(c3ccccc3)C(=O)C3CC=CCC23)c2c1OC1(CCCC1)C2` (stereo not drawn) [Compound 8, (cis)-4-(2.3-Dihydro-7-methoxybenzofuran-2-spiro-1′-cyclopentan-4-yl)-2-phenyl-4a,5,8,8a-tetrahydro-2H-phthalazin-1-one] reads 8.87; that for `COc1ccc(C2=NN(CCCCn3ccnc3)C(=O)C3CC=CCC23)c2c1OC1(CCCC1)C2` (stereo not drawn) [Compound 22, (cis)-4(2,3-Dihydro-7-methoxybenzofuran-2-spiro-1′-cylopentan-4-yl)-2-[4-(imidazol-1yl)-1-butyl]-4a,5,8,8a-tetrahydro-phthalazin-1-one], 8.82. `COc1ccc(C2=NN(C3CCCCCC3)C(=O)C3CC=CCC23)c2c1OC1(CCCC1)C2` (stereo not drawn) [Compound 6, (cis)-4-(2,3-Dihydro-7-methoxybenzofuran-2-spiro-1′-cyclopentan-4-yl)-2-cycloheptyl-4a,5,8,8a-tetrahydro-2H-phthalazin-1-one]: the “Inhibition of PDE4 activity [measured as -loglC50 (mol/l)]” value is on record as 9.17.

For `COc1ccc(C2=NN(CCO)C(=O)C3CC=CCC23)c2c1OC1(CCCC1)C2` (stereo not drawn) [Compound 17, (cis)-4-(2,3-Dihydro-7-methoxybenzofuran-2-spiro-1′-cyclopentan-4-yl-2-hydroxyethyl-4a,5,8,8a-tetrahydro-2H-phthalazin-1-one], the “Inhibition of PDE4 activity [measured as -loglC50 (mol/l)]” value was 8.36. Same read-out and setting: the result for `COc1ccc(C2=NNC(=O)C3CCCCC23)c2c1OC1(CCCC1)C2` [Compound 9, (4aS, 8aR)-4-(2,3-Dihydro-7-methoxybenzofuran-2-spiro-1′-cyclopentan-4-yl)-4a,5,6,7,8,8a-hexahydro-2H-phthalazin-1-one] reads 7.80. Still for that read-out and setting: to `COc1ccc(C2=NN(Cc3ccccc3)C(=O)C3CC=CCC23)c2c1OC(C)(C)C2` (stereo not drawn) [Compound 26, (cis)-4-2,3-Dihydro-2,2-dimethyl-7-methoxybenzofuran-4-yl)-2-benzyl-4a,5,8,8a-tetrahydro-2H-phthalazin-1-one] belongs 8.72; to `COc1ccc(C2=NN(C3CCCCCC3)C(=O)[C@H]3CC=CC[C@@H]23)c2c1OC(C)(C)C2` (relative stereo) [Compound 25, (cis)-4-(2,3-Dihydro-2,2-dimethyl-7-methoxybenzofuran-4-yl)-2-cycloheptyl-4a,5,8,8a-tetrahydro-2H-phthalazin-1-one], 9.01; to `COc1ccc(C2=NN(Cc3ccccc3)C(=O)C3CC=CCC23)c2c1OC1(CCCC1)C2` (stereo not drawn) [Compound 7, (cis)-4-(2,3-Dihydro-7-methoxybenzofuran-2-spiro-1′-cyclopentan-4-yl)-2-benzyl-4a,5,8,8a-tetrahydro-2H-phthalazin-1-one], 8.93.
